Results on six molecules are retold here after patent publication US20200270575A1, “Culture System for Expanding Hematopoietic Stem Cells and/or Hematopoietic Progenitor Cells and the Method Thereof, Hematopoietic Stem Cells and Hematopoietic Progenitor Cells” (NEWISH TECHNOLOGY (BEIJING) CO., LTD., priority 2017, published 2020).

The structures appear in SMILES notation.

In test [1] the test system is cord blood-derived CD34+ cells. The test is described as follows: In vitro expansion of CD34+CD45RA− cells, 7-day culture of cord blood-derived CD34+ cells. Type of test: cell-based, human. The protocol: The material was derived from cord blood waste supplied by the company, and cord blood-derived CD34+ cells were isolated by magnetic bead sorting (MACS) as cultured materials in the following examples.
CD34+ cells were cultured based on the culture conditions of Table 1. The experimental group (the small chemical molecule is SP600125) and the control group (the small chemical molecule is replaced by DMSO, the volume ratio of DMSO: medium is 1:10000) were placed in the cell incubator at 37° C. with the concentration of 5% carbon dioxide, and half amount of the medium was changed every 2 days.
On the 7th day of the culturing, the ratio of CD34+CD45RA−cells was measured, and the fold expansion was counted and calculated. The CD34+CD45RA− in the experimental group was about 15 times in the fold expansion, while the CD34+CD45RA− in the control group was about 5 times in fold expansion.

The next test relates to immunodeficient mice. The test is described as follows: Transplantation experiment in vivo: reconstitution of human cells in bone marrow and peripheral blood after 4 months. Conditions: for reconstruction effect of experimental group relative to control group (DMSO): 4 months; for blood cells in human peripheral blood (reconstitution proportion of peripheral blood) / reconstruction proportion of human blood cells in bone marrow (CD45+ cells): 4 months after transplantation. The protocol: On the 7th day of the culturing, the transplantation experiment in vivo was carried out at the meantime. The expanded CD34+ cells in the experimental group and the control group were respectively injected into the immunodeficient mice by bone marrow transplantation. Each group contain 8 mice, and each mouse was injected with the total cells expanded from 5000 original CD34+ cells. The reconstitution ratio of human cells in peripheral blood and bone marrow of immunodeficient mice were measured after 4 months. In the experimental group, the reconstruction proportion of human blood cells in bone marrow (CD45+ cells) reached about 50%, and the blood cells in human peripheral blood reached about 5%. In the control group, the reconstruction proportion of human blood cells in bone marrow reached about 20%, and the blood cells in human peripheral blood reached about 1%. The reconstruction effect of the experimental group was about 4 times higher than that of the control group after a general comparison.

A further test concerns immunodeficiency mice. Conditions: background, 2010 report; cited from earlier work.
In another test the test system is LT-HSC. The following applies: background, 2014 report; cited from earlier work.
The mark [2] stands for this setting: Example 4: cells expanded with 5 μM.
Setting [3] is: Example 5: cells expanded with 1 μM.
[4] abbreviates: Example 6: cells expanded with 0.5 μM.
Setting [5] is: Example 2: cells expanded with 4 μM.
[6] abbreviates: Example 3: cells expanded with 2 μM.
The mark [7] stands for this setting: Example 7: cells expanded with 5 μM.

`N#C/C(=C1/Nc2ccccc2S1)c1ccnc(NCCc2cccnc2)n1` [AEG-3482]: the “proliferation amount of CD34+CD45RA− in the experimental group relative to control group (DMSO)” value in test [1] (Example 4: 5 μM, SCF 10, FL 100, TPO 10 ng/ml, LDL 2 μg/ml, day 7) came out at 2.3 times. The “reconstruction effect of experimental group relative to control group (DMSO)” value in the test with immunodeficient mice (Example 4: 5 μM, general comparison) was “about 2.5 times”. For the same molecule, in the test with immunodeficient mice (setting [2]), the “blood cells in human peripheral blood (reconstitution proportion of peripheral blood)” value (shortened to “blood cells in human peripheral blood”) is recorded as “about 3.5%” and the “reconstruction proportion of human blood cells in bone marrow (CD45+ cells)” value (from here on “reconstruction proportion”) is given as “about 35%”.

As to `CN(C)C/C=C/C(=O)Nc1cccc(C(=O)Nc2ccc(Nc3nccc(-c4cccnc4)n3)cc2)c1` [JNK-IN-7], the “proliferation amount of CD34+CD45RA− in the experimental group relative to control group (DMSO)” value in test [1] (Example 5: 1 μM, SCF 200, FL 50, TPO 5 ng/ml, LDL 10 μg/ml, day 7) is given as 2.5 times. Further, in the test on immunodeficient mice (Example 5: 1 μM, general comparison), the “reconstruction effect of experimental group relative to control group (DMSO)” value is on record as “about 5 times”. In addition, in the test on immunodeficient mice (setting [3]), the “blood cells in human peripheral blood” value is “about 8.5%” and the “reconstruction proportion” value is given as “about 58%”.

For `CN(C)C/C=C/C(=O)Nc1cccc(C(=O)Nc2ccc(Nc3nccc(-c4c(-c5ccccc5)nn5ccccc45)n3)cc2)c1` [JNK-IN-11], the “proliferation amount of CD34+CD45RA− in the experimental group relative to control group (DMSO)” value in test [1] (Example 6: 0.5 μM, SCF 300, FL 100, TPO 20 ng/ml, LDL 10 μg/ml, day 7) was determined as 2.8 times. In the test on immunodeficient mice (Example 6: 0.5 μM, general comparison), the “reconstruction effect of experimental group relative to control group (DMSO)” value is recorded as “about 8 times”. In the test with immunodeficient mice (setting [4]), the “blood cells in human peripheral blood” value is “about 12.5%” and the “reconstruction proportion” value is “about 78%”.

As to `O=C1c2ccccc2-c2n[nH]c3cccc1c23` [SP600125], in test [1] (Example 1: 4 μM, SCF 100, FL 100, TPO 50 ng/ml, LDL 10 μg/ml), the “fold expansion of CD34+CD45RA− cells at day 7 relative to the primary cells” value is reported as “about 15 times”. Also, the “CD34+CD45RA− in the experimental group relative to control group (DMSO)” value in test [1] (Example 2: 4 μM, SCF 50, FL 50, TPO 25 ng/ml, LDL 5 μg/ml, day 7) is listed as 2.5 times. In addition, the “proliferation amount of CD34+CD45RA− in the experimental group relative to control group (DMSO)” value in test [1] (Example 3: 2 μM, SCF 20, FL 50, TPO 20 ng/ml, LDL 5 μg/ml, day 7) amounted to 2 times; in test [1] (Example 7: 5 μM, SCF 500, FL 100, TPO 20 ng/ml, LDL 10 μg/ml, day 7), 2.3 times. Besides, the “reconstruction effect of experimental group relative to control group (DMSO)” value is on record as “about 4 times” in the test on immunodeficient mice (Example 1: 4 μM, general comparison); “about 6 times” with immunodeficient mice (Example 2: 4 μM, general comprehensive comparison); “about 4 times” in the test with immunodeficient mice (Example 3: 2 μM, general comparison); “about 5.5 times” in the test with immunodeficient mice (Example 7: 5 μM, general comparison). Also, the “blood cells in human peripheral blood” value in the test on immunodeficient mice (Example 1: cells expanded with 4 μM) is “about 5%”; in the test on immunodeficient mice (setting [5]), “about 9%”; in the test with immunodeficient mice (setting [6]), “about 4%”; in the test on immunodeficient mice (setting [7]), “about 7.5%”. In addition, the “reconstruction proportion” value is given as “about 50%” in the test on immunodeficient mice (Example 1: cells expanded with 4 μM, cells from 5000 original CD34+ cells per mouse); “about 70%” with immunodeficient mice (setting [5]); “about 40%” in the test with immunodeficient mice (setting [6]); “about 58%” with immunodeficient mice (setting [7]).

On to `CC(C)n1cnc2c(NCCc3ccc(O)cc3)nc(-c3csc4ccccc34)nc21` [SR1], for which the “increase of the amount of exogenous hematopoietic cells detected in immunodeficiency mice” value in the test with immunodeficiency mice is listed as 17 times.

On to `Cn1nnc(-c2ccc3c(c2)[nH]c2nc(Cc4ccccc4)nc(NC4CCC(N)CC4)c23)n1` (stereo not drawn) [UM171], for which the “maintenance of the function of hematopoietic reconstitution” value in the test on LT-HSC is recorded as “up to 6 months”.
